The values below come from paper PMC8206213, “An L-2-hydroxyglutarate biosensor based on specific transcriptional regulator LhgR” (Nature Communications, 2021).

Values joined by “and” are separate entries in the source; they are usually repeats but may differ in a detail not shown here. Equal entries are not always repeated.

Common to all, as to type: binding, Pseudomonas putida W619
For experiment [1], the system named is LHGFR0N3C. Briefly: Influence of other compounds on the response of purified LHGFR0N3C to L-2-HG. The note with it: Suppl. Fig. 9a, three replicates. How it is done: (§1) Purified L-2-HG biosensors and different compounds were diluted by 50 mM Tris-HCl buffer (pH 7.4), mixed together in a black 96-well plate at a volume ratio of 3:1, and the fluorescence intensities were measured using an EnSight microplate reader (PerkinElmer, USA) with excitation at 430 nm, emission at 485 nm (mTFP) and 528 nm (Venus). […] The [L-2-HG], Kd, and p refer to the L-2-HG concentration, apparent dissociation constant, and Hill slope, respectively. Emission spectra were recorded at 430 nm excitation, in steps of 2 nm. Excitation spectra were recorded using emission at 550 nm, excitation from 380 to 535 nm in steps of 2 nm.

The test system of experiment [2] is LHGFR0N7C. The experiment is described as follows: Influence of other compounds on the response of purified LHGFR0N7C to L-2-HG. The note with it: Suppl. Fig. 9b, three replicates. How it is done:
as §1

The test system of experiment [3] is LHGFR0N3C. Briefly: Specificity of purified LHGFR0N3C, emission ratio with 240 μM compounds. To be noted: 240 μM compound. How it is done: as §1
The subject of experiment [4] is LHGFR0N7C. The experiment is described as follows: Specificity of purified LHGFR0N7C, emission ratio with 240 μM compounds. To be noted: 240 μM compound. As to the method:
as §1

Where [5] appears, read: L-2-HG alone or with the compound.

For `Nc1ncnc2c1ncn2[C@@H]1O[C@H](COP(=O)(O)OP(=O)(O)OP(=O)(O)O)[C@@H](O)[C@H]1O` [ATP], the Emission ratio in the experiment on LHGFR0N3C [1] (50 μM ATP) was 2.0763 and 2.03 and 2.053; in the experiment on LHGFR0N3C [1] (100 μM ATP), 2.022 and 2.017 and 2.045; in the experiment on LHGFR0N3C [1] (500 μM ATP), 2.063 (2×) and 2.059; in the experiment with LHGFR0N3C [1] (1 mM ATP), 2.142 and 2.082 and 2.1362; in the experiment with LHGFR0N3C [1] (5 mM ATP), 2.1045 and 2.1074 and 2.154; in the experiment with LHGFR0N7C [2] (50 μM ATP), 2.546 and 2.581 and 2.59. For the same molecule, the Emission ratio is 2.59 and 2.574 and 2.618 with LHGFR0N7C [2] (100 μM ATP); 2.6191 and 2.584 and 2.589 in the experiment with LHGFR0N7C [2] (500 μM ATP); 2.6148 and 2.611 (2×) in the experiment on LHGFR0N7C [2] (1 mM ATP); 2.6574 and 2.624 and 2.63 in the experiment with LHGFR0N7C [2] (5 mM ATP).

With `O=C(O)/C=C(/CC(=O)O)C(=O)O` [Cis-aconitate, cis-aconitate], the Emission ratio in the experiment with LHGFR0N3C [3] was 1.358 and 1.383 and 1.3936; in the experiment on LHGFR0N7C [4] it was 1.7035 and 1.722 and 1.738; with LHGFR0N3C [1] (setting [5]), 2.04 and 2.059 and 2.056; in the experiment on LHGFR0N7C [2] (setting [5]), 2.594 and 2.591 and 2.61. For the same molecule, the “Induction of emission ratio changes” value with LHGFR0N3C [3] and with LHGFR0N7C [4] was “None” throughout.

`O=C(O)CC(O)(CC(=O)O)C(=O)O` [Citrate]: the Emission ratio in the experiment on LHGFR0N3C [3] was 1.344 and 1.397 and 1.391; in the experiment on LHGFR0N7C [4], 1.665 and 1.672 and 1.697; with LHGFR0N3C [1] (setting [5]) it was 1.986 and 2.033 and 2.109; in the experiment on LHGFR0N7C [2] (setting [5]) it was 2.561 and 2.588 and 2.595. The “Induction of emission ratio changes” value in the experiment on LHGFR0N3C [3] and in the experiment with LHGFR0N7C [4] was “None” in each case.

In the case of `C[C@@H](O)C(=O)O` [D-Lactate, D-lactate], the Emission ratio in the experiment with LHGFR0N3C [3] was 1.395; in the experiment with LHGFR0N7C [4], 1.7153 and 1.693 and 1.686; in the experiment on LHGFR0N3C [1] (setting [5]) it was 2.084 and 2.089 and 2.108; in the experiment with LHGFR0N7C [2] (setting [5]) it was 2.595 and 2.609 and 2.633. The “Induction of emission ratio changes” value with LHGFR0N3C [3] and in the experiment with LHGFR0N7C [4] was “None” in each case.

For `O=C(O)/C=C/C(=O)O` [Fumarate], the Emission ratio in the experiment on LHGFR0N3C [3] was 1.378 and 1.374 and 1.399; in the experiment with LHGFR0N7C [4] it was 1.695 and 1.71 and 1.714; with LHGFR0N3C [1] (setting [5]), 1.9538 and 2.042 and 2.049; in the experiment with LHGFR0N7C [2] (setting [5]) it was 2.613 and 2.5931 and 2.59. Moreover, the “Induction of emission ratio changes” value in the experiment on LHGFR0N3C [3] and in the experiment with LHGFR0N7C [4] was “None” in each case.

In the case of `C[C@H](O)C(=O)O` [L-Lactate, L-lactate], the Emission ratio was 1.397 and 1.412 and 1.41 in the experiment on LHGFR0N3C [3]; 1.748 and 1.739 and 1.741 with LHGFR0N7C [4]; 2.088 and 2.079 and 2.04 in the experiment with LHGFR0N3C [1] (setting [5]); 2.6205 and 2.619 and 2.644 with LHGFR0N7C [2] (setting [5]). The “Induction of emission ratio changes” value with LHGFR0N3C [3] and in the experiment on LHGFR0N7C [4] was “None” throughout.

For the molecule `O=C(O)C[C@H](O)C(=O)O` [L-Malate, L-malate], the Emission ratio is 1.354 and 1.373 (2×) in the experiment with LHGFR0N3C [3]; 1.654 and 1.687 and 1.723 with LHGFR0N7C [4]; 2.062 and 2.063 and 2.08 with LHGFR0N3C [1] (setting [5]); 2.598 and 2.599 and 2.61 with LHGFR0N7C [2] (setting [5]). The “Induction of emission ratio changes” value in the experiment with LHGFR0N3C [3] and in the experiment with LHGFR0N7C [4] was “None” in each case.

Regarding `O=C(O)CC(=O)C(=O)O` [Oxaloacetate], the Emission ratio was 1.3879 and 1.4027 and 1.379 in the experiment on LHGFR0N3C [3]; 1.671 (2×) and 1.68 in the experiment with LHGFR0N7C [4]; 2.024 and 2.069 and 2.088 with LHGFR0N3C [1] (setting [5]); 2.5106 and 2.58 and 2.608 with LHGFR0N7C [2] (setting [5]). The “Induction of emission ratio changes” value with LHGFR0N3C [3] and in the experiment with LHGFR0N7C [4] was “None” in each case.

Regarding `CC(=O)C(=O)O` [Pyruvate, pyruvate], the Emission ratio with LHGFR0N3C [3] was 1.366 and 1.361 and 1.386; in the experiment with LHGFR0N7C [4] it was 1.667 and 1.6731 and 1.709; with LHGFR0N3C [1] (setting [5]), 2.0125 and 2.04 and 2.083; with LHGFR0N7C [2] (setting [5]) it was 2.56 and 2.596 and 2.595. In addition, the “Induction of emission ratio changes” value in the experiment on LHGFR0N3C [3] and with LHGFR0N7C [4] was “None” in each case.
